The pKd is the Kd on a negative log10 scale, so that one unit is a factor of ten. A higher pKd goes with a small Kd.

The results in this text go back to article PMC11345332, “Expression, Purification and Biophysical Characterisation of Klebsiella Pneumoniae Protein Adenylyltransferase: A Systematic Integration of Empirical and Computational Modelling Approaches” (The Protein Journal, 2024).

pKd: −log10 of the molar value.

In experiment [1] the target is T1, KpPrAT (Klebsiella pneumoniae protein adenylyltransferase) (Klebsiella variicola, UniProt B5XQE2). Put plainly: biochemical. The arrangement: gene ydiU. From the text: isothermal titration calorimetry on KpPrAT (Klebsiella pneumoniae protein adenylyltransferase)
Experiment [2] has as its target T1, KpPrAT (Klebsiella pneumoniae protein adenylyltransferase). The experiment can be described thus: fluorescence emission blue shift and intensity increase. The arrangement: gene ydiU; synthetic gene in pET-11a (NdeI/BamHI), N-terminal His6 tag kept (no cleavage described), E. coli T7 cells, Ni-IMAC, about 54 kDa. The experiment is classed as binding. Particulars: 10 µM mant-ATP, 2 µM protein, 20 mM sodium phosphate pH 7.4, 20 °C, with or without 5 mM MgCl2; labelled compound.

T1 sequence (B5XQE2 whole entry): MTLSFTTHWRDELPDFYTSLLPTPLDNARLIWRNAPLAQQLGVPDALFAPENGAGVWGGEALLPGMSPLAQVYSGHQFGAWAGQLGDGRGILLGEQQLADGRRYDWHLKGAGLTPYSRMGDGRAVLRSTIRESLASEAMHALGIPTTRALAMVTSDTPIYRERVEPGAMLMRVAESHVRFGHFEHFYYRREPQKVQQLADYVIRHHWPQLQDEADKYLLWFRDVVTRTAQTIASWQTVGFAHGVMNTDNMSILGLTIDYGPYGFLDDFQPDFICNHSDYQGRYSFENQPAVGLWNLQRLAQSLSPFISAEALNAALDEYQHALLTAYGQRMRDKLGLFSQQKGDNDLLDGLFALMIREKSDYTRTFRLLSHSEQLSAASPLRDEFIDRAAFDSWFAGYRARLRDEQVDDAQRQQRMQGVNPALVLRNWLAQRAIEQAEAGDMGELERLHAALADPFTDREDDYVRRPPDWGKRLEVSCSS

Take `Nc1ncnc2c1ncn2[C@@H]1O[C@H](COP(=O)(O)OP(=O)(O)OP(=O)(O)O)[C@@H](O)[C@H]1O` [ATP]: the pKd in experiment [1] is 5.53.

For the compound `CNc1ccccc1C(=O)O[C@H]1[C@@H](O)[C@H](n2cnc3c(N)ncnc32)O[C@@H]1COP(=O)(O)OP(=O)(O)OP(=O)(O)O` [mant-ATP, 2ʹ/3’-O-(N-Methylanthraniloyl) adenosine 5ʹ-triphosphate], the “fluorescence emission blue shift and intensity increase” value in experiment [2] was “An increase in fluorescence intensity and blue shift occurs when KpPrAT binds to mant-ATP”.
